system: COS-1 cells; experiment: In vitro mammalian cytotoxicity assay (Resazurin)

**Q.** `CN(C)[C@@H]1C(O)=C(C(N)=O)C(=O)[C@@]2(C#N)C(O)=C3C(=O)c4c(O)c(F)cc(CN)c4C[C@@]3(N)C[C@@]12N` [NQ] was tested. Which “In Vitro Cytotoxicity” value did it give?
**A.** ** (toxicities less than 25 μg/mL are represented by **)

**Q.** How did the “In Vitro Cytotoxicity” value turn out when `CN(C)[C@@H]1C(O)=C(C(N)=O)C(=O)[C@@]2(C#N)C(O)=C3C(=O)c4c(O)c(C(C)(C)C)cc(I)c4C[C@@]3(N)C[C@@]12N` [NR] was run?
**A.** ** (toxicities less than 25 μg/mL are represented by **)

**Q.** For `CC(C)COC(=O)NCc1ccc(-c2ccc(O)c3c2C[C@@]2(N)C[C@@]4(N)[C@H](N(C)C)C(O)=C(C(N)=O)C(=O)[C@@]4(C#N)C(O)=C2C3=O)cc1` [NS], which “In Vitro Cytotoxicity” value is on record?
**A.** ** (toxicities less than 25 μg/mL are represented by **)

**Q.** `CN(C)[C@@H]1C(O)=C(C(N)=O)C(=O)[C@@]2(C#N)C(O)=C3C(=O)c4c(O)c(C(C)(C)C)cc(-c5ccc6c(c5)OCO6)c4C[C@@]3(N)C[C@@]12N` [NT] was tested. Which “In Vitro Cytotoxicity” value did it give?
**A.** ** (toxicities less than 25 μg/mL are represented by **)

**Q.** `CN(C)[C@@H]1C(O)=C(C(N)=O)C(=O)[C@@]2(C#N)C(O)=C3C(=O)c4c(O)ccc(-c5cc6ccccc6o5)c4C[C@@]3(N)C[C@@]12N` [NW] was tested. Which “In Vitro Cytotoxicity” value did it give?
**A.** ** (toxicities less than 25 μg/mL are represented by **)

**Q.** How did the “In Vitro Cytotoxicity” value turn out when `CN(C)CC(=O)NCc1ccc(-c2ccc(O)c3c2C[C@@]2(N)C[C@@]4(N)[C@H](N(C)C)C(O)=C(C(N)=O)C(=O)[C@@]4(C#N)C(O)=C2C3=O)cc1` [NY] was run?
**A.** ** (toxicities less than 25 μg/mL are represented by **)

**Q.** With `CCOC(=O)C(NCc1ccc(OC)c(-c2ccc(O)c3c2C[C@@]2(N)C[C@@]4(N)[C@H](N(C)C)C(O)=C(C(N)=O)C(=O)[C@@]4(C#N)C(O)=C2C3=O)c1)C(C)C` (stereo partly shown) [NZ] as the molecule, how does the “In Vitro Cytotoxicity” value read?
**A.** ** (toxicities less than 25 μg/mL are represented by **)

**Q.** How did the “In Vitro Cytotoxicity” value turn out when `COC(=O)C(CC(C)C)NCc1ccc(OC)c(-c2ccc(O)c3c2C[C@@]2(N)C[C@@]4(N)[C@H](N(C)C)C(O)=C(C(N)=O)C(=O)[C@@]4(C#N)C(O)=C2C3=O)c1` (stereo partly shown) [OA] was run?
**A.** ** (toxicities less than 25 μg/mL are represented by **)

**Q.** Which “In Vitro Cytotoxicity” value does the source give for `CCOC(=O)C(Cc1ccccc1)NCc1ccc(OC)c(-c2ccc(O)c3c2C[C@@]2(N)C[C@@]4(N)[C@H](N(C)C)C(O)=C(C(N)=O)C(=O)[C@@]4(C#N)C(O)=C2C3=O)c1` (stereo partly shown) [OB] here?
**A.** ** (toxicities less than 25 μg/mL are represented by **)

**Q.** Which “In Vitro Cytotoxicity” value does the source give for `CC(C)COC(=O)Nc1ccc(-c2ccc(O)c3c2C[C@@]2(N)C[C@@]4(N)[C@H](N(C)C)C(O)=C(C(N)=O)C(=O)[C@@]4(C#N)C(O)=C2C3=O)cc1` [OD] here?
**A.** ** (toxicities less than 25 μg/mL are represented by **)

**Q.** Which “In Vitro Cytotoxicity” value does the source give for `CC(C)NCc1ccc(-c2ccc(O)c3c2C[C@@]2(N)C[C@@]4(N)[C@H](N(C)C)C(O)=C(C(N)=O)C(=O)[C@@]4(C#N)C(O)=C2C3=O)c2ccccc12` [OE] here?
**A.** ** (toxicities less than 25 μg/mL are represented by **)

**Q.** Which “In Vitro Cytotoxicity” value does the source give for `CN(C)[C@@H]1C(O)=C(C(N)=O)C(=O)[C@@]2(C#N)C(O)=C3C(=O)c4c(O)ccc(-c5ccc(CNCCc6ccc(Cl)cc6)cc5)c4C[C@@]3(N)C[C@@]12N` [OF] here?
**A.** ** (toxicities less than 25 μg/mL are represented by **)

**Q.** `CN(C)[C@@H]1C(O)=C(C(N)=O)C(=O)[C@@]2(C#N)C(O)=C3C(=O)c4c(O)ccc(-c5ccc(CNCc6cccc(F)c6)cc5)c4C[C@@]3(N)C[C@@]12N` [OG] was tested. Which “In Vitro Cytotoxicity” value did it give?
**A.** ** (toxicities less than 25 μg/mL are represented by **)

**Q.** `CN(C)CC#Cc1cc(C(C)(C)C)c(O)c2c1C[C@@]1(N)C[C@@]3(N)[C@H](N(C)C)C(O)=C(C(N)=O)C(=O)[C@@]3(C#N)C(O)=C1C2=O` [OH] was tested. Which “In Vitro Cytotoxicity” value did it give?
**A.** ** (toxicities less than 25 μg/mL are represented by **)

**Q.** Which “In Vitro Cytotoxicity” value does the source give for `CC(C)c1cccc(-c2ccc(O)c3c2C[C@@]2(N)C[C@@]4(N)[C@H](N(C)C)C(O)=C(C(N)=O)C(=O)[C@@]4(C#N)C(O)=C2C3=O)c1` [OI] here?
**A.** ** (toxicities less than 25 μg/mL are represented by **)

**Q.** `Cc1ccc(-c2ccc(O)c3c2C[C@@]2(N)C[C@@]4(N)[C@H](N(C)C)C(O)=C(C(N)=O)C(=O)[C@@]4(C#N)C(O)=C2C3=O)cc1C` [OJ] was tested. Which “In Vitro Cytotoxicity” value did it give?
**A.** ** (toxicities less than 25 μg/mL are represented by **)

From US20050070510A1, “Substituted tetracycline compounds as synergistic antifungal agents” (Paratek Pharmaceuticals, Inc., priority 2001, published 2005)
